Data: US20240228481A1, “NOVEL SULFONAMIDE SERIES OF QR2 INHIBITORS TO TACKLE OXIDATIVE STRESS AND COGNITIVE DECLINE” (CARMEL HAIFA UNIVERSITY ECONOMIC CORPORATION LTD., priority 2021, published 2024)

Experiments:
Type in all cases: biochemical
QR1 (NQO1) [1] = target: T1, QR1 (NQO1) (Homo sapiens, UniProt P15559); experiment: Selectivity assay with QR1 in place of QR2, absorbance readout
T1 construct: purchased Sigma-Aldrich
Method: (§1) The enzymatic activity of QR2 (10 nM) was measured using menadione (both Sigma-Aldrich) as substrate and dihydrobenzylnicotamide (BNAH; Tocris) as co-substrate (Boutin et al., 2005). The reaction was performed in 50 mM Tris HCl, 150 mM NaCl 0.01% Tween-20 pH=8.5 (Sigma-Aldrich) at room temperature. Briefly, 3 μL of menadione alone (200 μM) or a mixture of menadione and QR2 (200 μM of menadione and 10 nM of QR2) were dispensed in 1536-well black Nunc plates (Thermo-Fisher) using a Multidrop™ Combi Reagent Dispenser (Thermo-Fisher) and pre-incubated with compounds for 10 min. BNAH (200 μM) was then added (3 μL) to the reaction using a BioNex Solutions BNX 1536 plate washer and the plates were incubated for another 10 min. […] The initial HTS was done with approximately 200,000 compounds at a single concentration of 5 μM. The chemical libraries used were Selleck Chemicals Bioactives, the Drug-like set from Enamine, HitFinder collection from Maybridge, Spectrum Collection from Microsource, Lopac from Sigma-Aldrich and the diversity sets from ChemDiv and ChemBridge. Initial “hit” compounds were defined as causing >30% reduction of enzyme activity. Compounds suspected to be fluorescent were re-assayed in an absorbance assay at 350 nm using the same reaction but in a higher volume (100 μL), in a transparent plate (Greiner Bio-One). “Hit” compounds resulting from both the fluorescence and absorbance assay were tested in a dose-response, and median inhibition concentration (IC50) values were determined. In parallel, the same dose response was used in a selectivity assay where QR2 enzyme was replaced by QR1 (also known as—NQO1, 10 nM; Sigma-Aldrich).
(§2) In order to establish a varied, flexible and chemically amenable starting point from which to develop such inhibitors, the inventors ran a standardized QR2 assay (see methods) against ˜200,000 compounds, from a varied assortment of chemical libraries. […] Compounds that replicated the initial hit result were then assayed similarly, against NQO1, to evaluate compound specificity (FIG. 1B). From the HTS, a series of compounds containing a sulfonamide central linker, with an amine on one side and a heterocycle on the other, were identified and selected for SAR development (FIG. 1C).

QR1 (NQO1) [2] = target: T1, QR1 (NQO1); experiment: Selectivity assay with QR1 in place of QR2, fluorescence readout
Method: as §1, §2

QR2 [3] = target: T2, QR2 (Homo sapiens, UniProt P16083); experiment: QR2 enzymatic activity assay (menadione/BNAH), absorbance readout at 350 nm; design: purchased Sigma-Aldrich
T2 sequence (P16083 1-231): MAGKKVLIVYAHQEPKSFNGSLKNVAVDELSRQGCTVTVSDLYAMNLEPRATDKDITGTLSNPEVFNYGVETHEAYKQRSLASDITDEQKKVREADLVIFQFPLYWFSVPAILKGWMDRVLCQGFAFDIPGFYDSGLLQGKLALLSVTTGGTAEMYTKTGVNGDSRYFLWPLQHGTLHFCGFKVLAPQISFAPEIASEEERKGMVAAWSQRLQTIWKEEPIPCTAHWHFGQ
Method: (§3) The enzymatic activity of QR2 (10 nM) was measured using menadione (both Sigma-Aldrich) as substrate and dihydrobenzylnicotamide (BNAH; Tocris) as co-substrate (Boutin et al., 2005). The reaction was performed in 50 mM Tris HCl, 150 mM NaCl 0.01% Tween-20 pH=8.5 (Sigma-Aldrich) at room temperature. Briefly, 3 μL of menadione alone (200 μM) or a mixture of menadione and QR2 (200 μM of menadione and 10 nM of QR2) were dispensed in 1536-well black Nunc plates (Thermo-Fisher) using a Multidrop™ Combi Reagent Dispenser (Thermo-Fisher) and pre-incubated with compounds for 10 min. BNAH (200 μM) was then added (3 μL) to the reaction using a BioNex Solutions BNX 1536 plate washer and the plates were incubated for another 10 min. […] The initial HTS was done with approximately 200,000 compounds at a single concentration of 5 μM. The chemical libraries used were Selleck Chemicals Bioactives, the Drug-like set from Enamine, HitFinder collection from Maybridge, Spectrum Collection from Microsource, Lopac from Sigma-Aldrich and the diversity sets from ChemDiv and ChemBridge. Initial “hit” compounds were defined as causing >30% reduction of enzyme activity. […] “Hit” compounds resulting from both the fluorescence and absorbance assay were tested in a dose-response, and median inhibition concentration (IC50) values were determined. In parallel, the same dose response was used in a selectivity assay where QR2 enzyme was replaced by QR1 (also known as—NQO1, 10 nM; Sigma-Aldrich).
(§4) In order to establish a varied, flexible and chemically amenable starting point from which to develop such inhibitors, the inventors ran a standardized QR2 assay (see methods) against ˜200,000 compounds, from a varied assortment of chemical libraries.

QR2 [4] = target: T2, QR2; experiment: QR2 enzymatic activity assay (menadione/BNAH), fluorescence readout; design: purchased Sigma-Aldrich
Method: as §3, §4

T1 sequence (P15559 whole entry): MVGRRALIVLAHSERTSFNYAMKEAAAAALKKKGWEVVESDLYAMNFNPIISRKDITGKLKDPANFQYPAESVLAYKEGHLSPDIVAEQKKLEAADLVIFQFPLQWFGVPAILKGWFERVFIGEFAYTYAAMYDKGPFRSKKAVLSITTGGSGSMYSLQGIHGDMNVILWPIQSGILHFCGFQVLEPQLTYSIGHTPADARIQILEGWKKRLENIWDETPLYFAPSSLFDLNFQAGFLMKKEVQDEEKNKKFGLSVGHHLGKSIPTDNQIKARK

IC50 (QR1 (NQO1) [1]) [µM] | IC50 (QR1 (NQO1) [2]) [µM] | IC50 (QR2 [3]) [µM] | IC50 (QR2 [4]) [µM] | SMILES
> 9.99 | < 0.83 | > 9.99 | < 0.83 | N#Cc1nc(-c2ccc(S(=O)(=O)N3CCCC3)cc2)oc1NCCCN1CCOCC1 [PCM-0172736]
> 9.99 | > 9.9 | > 9.99 | > 9.9 | CNC(=O)N1CCc2cc(S(=O)(=O)N3CCc4ccccc43)ccc21 [PCM-0181527]
> 9.99 | > 9.99 | 1.16 | 2.36 | Cc1cc(-c2ccc(C)c(S(=O)(=O)Nc3ccc(Cl)cc3)c2)[nH]n1 [PCM-0186036]
< 0.75 | < 0.83 | 4.03 | 5.62 | O=S(=O)(Nc1cccc(-c2cn3ccsc3n2)c1)c1ccc2c(c1)OCCO2 [PCM-0190999]
> 9.99 | > 9.9 | > 9.99 | > 9.9 | COc1ccc(O)cc1NC(=O)c1oc2ccc(S(=O)(=O)N3CCCC3)cc2c1C [PCM-0193675]
> 9.99 | > 9.9 | > 9.99 | > 9.9 | Cc1csc(-c2cc(S(=O)(=O)NC3CCCCC3)c(C)n2C)n1 [PCM-0195577]
> 9.99 | > 9.9 | 3.2 | 4.16 | CCOC(=O)C1CCN(S(=O)(=O)c2cc(-c3csc(C)n3)ccc2C)CC1 [PCM-0197024]
> 9.99 | > 9.99 | 1.28 | 4.65 | Cc1nc(-c2ccc(C)c(S(=O)(=O)N3CCN(C(=O)c4ccco4)CC3)c2)cs1 [PCM-0197066]
> 9.99 | > 9.99 | 4.58 | 7.4 | Cc1nc(-c2ccc(C)c(S(=O)(=O)N3CCC(C)CC3)c2)cs1 [PCM-0197104]
> 9.99 | > 9.9 | 8.09 | > 9.9 | CCc1noc(-c2c(S(=O)(=O)NCc3cccc(OC)c3)c(C)n(C)c2C)n1 [PCM-0200337]
> 9.99 | > 9.9 | > 9.99 | > 9.9 | CS(=O)(=O)N(C1CC1)C1CCOC2(CCN(C(=O)C3(c4ccccc4)CC3)CC2)C1 (stereo not shown) [PCM-0207818]
> 9.99 | > 9.99 | 0.05 | 3.04 | Cc1cccn2cc(-c3cccc(S(=O)(=O)Nc4ccc(Cl)cc4)c3)nc12 [PCM-0213788]
7.15 | > 9.99 | 0.11 | 0.27 | Cc1ccn2cc(-c3ccc(C)c(S(=O)(=O)N4CCN(C(=O)c5ccco5)CC4)c3)nc2c1 [PCM-0213790]
> 9.99 | > 9.99 | 0.08 | 0.26 | Cc1cc(-c2ccc(C)c(S(=O)(=O)N3CCN(C(=O)c4ccco4)CC3)c2)n[nH]1 [PCM-0213791]
> 9.99 | > 9.99 | 2.91 | 5.45 | Cc1nc(-c2ccc(C)c(S(=O)(=O)NCCCN3CCCC3=O)c2)cs1 [PCM-0213793]
> 9.99 | > 9.99 | 0.11 | 0.25 | Cc1cccn2cc(-c3cccc(S(=O)(=O)NCCCN4CCCC4=O)c3)nc12 [PCM-0213794]
> 9.99 | > 9.99 | 0.28 | 0.64 | Cc1cc(-c2ccc(C)c(S(=O)(=O)N3CCCCCC3)c2)[nH]n1 [PCM-0213795]
> 9.99 | > 9.99 | 2.44 | > 9.99 | Cc1nc(-c2ccc(C)c(S(=O)(=O)N3CCCCCC3)c2)cs1 [PCM-0213796]
> 9.99 | > 9.99 | 1.06 | 3.38 | Cc1ccc(-c2nnc(-c3ccccc3)o2)cc1S(=O)(=O)N1CCCCCC1 [PCM-0213797]
> 9.99 | > 9.99 | 0.41 | 1.27 | Cc1ccn2cc(-c3cccc(S(=O)(=O)N4CCCCCC4)c3)nc2c1 [PCM-0213798]
> 9.99 | > 9.99 | 0.27 | 0.9 | Cc1cc(-c2ccc(C)c(S(=O)(=O)N3CCC(C)CC3)c2)n[nH]1 [PCM-0213799]
> 9.99 | > 9.99 | 0.16 | 0.39 | Cc1cc(-c2ccc(C)c(S(=O)(=O)N(C)C)c2)n[nH]1 [PCM-0213802]
> 9.99 | > 9.99 | 0.1 | 2.8 | Cc1nc(-c2ccc(C)c(S(=O)(=O)N(C)C)c2)cs1 [PCM-0213803]
> 9.99 | > 9.99 | 0.25 | 1.48 | Cc1ccc(-c2nnc(-c3ccccc3)o2)cc1S(=O)(=O)N1CCCC1 [PCM-0213805]
> 9.99 | > 9.99 | 0.05 | 0.17 | Cc1cc(-c2ccc(C)c(S(=O)(=O)N3CCCC3)c2)n[nH]1 [PCM-0213806]
> 9.99 | > 9.99 | 0.37 | 1.55 | Cc1nc(-c2ccc(C)c(S(=O)(=O)N3CCCC3)c2)cs1 [PCM-0213807]
> 9.99 | > 9.99 | 0.18 | 0.51 | Cc1ccn2cc(-c3ccc(C)c(S(=O)(=O)N4CCCC4)c3)nc2c1 [PCM-0213809]
> 9.99 | > 9.99 | 0.98 | 3.16 | Cc1cc(-c2ccc(C)c(S(=O)(=O)NCc3cccnc3)c2)n[nH]1 [PCM-0213811]
